Measurements taken from ChEMBL document CHEMBL4002566, “S-substituted 3,5-dinitrophenyl 1,3,4-oxadiazole-2-thiols and tetrazole-5-thiols as highly efficient antitubercular agents” (Eur J Med Chem, 2017).
≈ marks a conversion by molar mass, not a printed value.

Tests used:
[1] = system: Mycobacterium tuberculosis; assay: Antimycobacterial activity against Mycobacterium tuberculosis by broth microdilution method; type: functional
Mycobacterium avium [2] = assay: Antimycobacterial activity against Mycobacterium avium CNCTC My 330/88 after 21 days by micromethod; type: functional; conditions: CNCTC My 330/88, 504 h
[3] = system: Mycobacterium tuberculosis; assay: Antimycobacterial activity against Mycobacterium tuberculosis CNCTC My 331/88 after 14 days by micromethod; type: functional; conditions: CNCTC My 331/88, 336 h
Mycobacterium avium [4] = assay: Antimycobacterial activity against Mycobacterium avium CNCTC My 330/88 after 14 days by micromethod; type: functional; conditions: CNCTC My 330/88, 336 h
Mycobacterium kansasii [5] = assay: Antimycobacterial activity against Mycobacterium kansasii CNCTC My 235/80 after 14 days by micromethod; type: functional; conditions: CNCTC My 235/80, 336 h
Mycobacterium kansasii [6] = assay: Antimycobacterial activity against Mycobacterium kansasii 6509/96 clinical isolate after 14 days by micromethod; type: functional; conditions: 6509/96, 336 h
Candida albicans [7] = assay: Antifungal activity against Candida albicans ATCC 44859 after 24 hrs by broth microdilution method; type: functional; conditions: ATCC 44859, 24 h
Candida albicans [8] = assay: Antifungal activity against Candida albicans ATCC 44859 after 48 hrs by broth microdilution method; type: functional; conditions: ATCC 44859, 48 h
Candida tropicalis [9] = assay: Antifungal activity against Candida tropicalis 156 after 24 hrs by broth microdilution method; type: functional; conditions: Candida tropicalis, 156, 24 h
Candida tropicalis [10] = assay: Antifungal activity against Candida tropicalis 156 after 48 hrs by broth microdilution method; type: functional; conditions: Candida tropicalis, 156, 48 h
Pichia kudriavzevii [11] = assay: Antifungal activity against Candida krusei E28 after 24 hrs by broth microdilution method; type: functional; conditions: E28, 24 h
Pichia kudriavzevii [12] = assay: Antifungal activity against Candida krusei E28 after 48 hrs by broth microdilution method; type: functional; conditions: E28, 48 h
Nakaseomyces glabratus [13] = assay: Antifungal activity against Candida glabrata 20/I after 24 hrs by broth microdilution method; type: functional
Nakaseomyces glabratus [14] = assay: Antifungal activity against Candida glabrata 20/I after 48 hrs by broth microdilution method; type: functional
Trichosporon asahii [15] = assay: Antifungal activity against Trichosporon asahii 1188 after 24 hrs by broth microdilution method; type: functional; conditions: Trichosporon asahii, 1188, 24 h
Trichosporon asahii [16] = assay: Antifungal activity against Trichosporon asahii 1188 after 48 hrs by broth microdilution method; type: functional; conditions: Trichosporon asahii, 1188, 48 h
Aspergillus fumigatus [17] = assay: Antifungal activity against Aspergillus fumigatus 231 after 24 hrs by broth microdilution method; type: functional; conditions: Aspergillus fumigatus, 231, 24 h
Aspergillus fumigatus [18] = assay: Antifungal activity against Aspergillus fumigatus 231 after 48 hrs by broth microdilution method; type: functional; conditions: Aspergillus fumigatus, 231, 48 h
Lichtheimia corymbifera [19] = assay: Antifungal activity against Absidia corymbifera 272 after 24 hrs by broth microdilution method; type: functional; conditions: Lichtheimia corymbifera, 272, 24 h
Lichtheimia corymbifera [20] = assay: Antifungal activity against Absidia corymbifera 272 after 48 hrs by broth microdilution method; type: functional; conditions: Lichtheimia corymbifera, 272, 48 h
[21] = system: Trichophyton mentagrophytes; assay: Antifungal activity against Trichophyton mentagrophytes 445 after 72 hrs by broth microdilution method; type: functional; conditions: Trichophyton mentagrophytes, 445, 72 h
[22] = system: Trichophyton mentagrophytes; assay: Antifungal activity against Trichophyton mentagrophytes 445 after 120 hrs by broth microdilution method; type: functional; conditions: Trichophyton mentagrophytes, 445, 120 h
Staphylococcus aureus [23] = assay: Antibacterial activity against Staphylococcus aureus ATCC 6538 after 24 hrs by broth microdilution method; type: functional; conditions: ATCC 6538, 24 h
Staphylococcus aureus [24] = assay: Antibacterial activity against Staphylococcus aureus ATCC 6538 after 48 hrs by broth microdilution method; type: functional; conditions: ATCC 6538, 48 h
Staphylococcus aureus [25] = assay: Antibacterial activity against methicillin-resistant Staphylococcus aureus HK5996/08 after 24 hrs by broth microdilution method; type: functional; conditions: HK5996/08, 24 h
Staphylococcus aureus [26] = assay: Antibacterial activity against methicillin-resistant Staphylococcus aureus HK5996/08 after 48 hrs by broth microdilution method; type: functional; conditions: HK5996/08, 48 h
[27] = system: Staphylococcus epidermidis; assay: Antibacterial activity against Staphylococcus epidermidis HK6996/08 after 24 hrs by broth microdilution method; type: functional; conditions: HK6996/08, 24 h
[28] = system: Staphylococcus epidermidis; assay: Antibacterial activity against Staphylococcus epidermidis HK6996/08 after 48 hrs by broth microdilution method; type: functional; conditions: HK6996/08, 48 h
Enterococcus sp. [29] = assay: Antibacterial activity against Enterococcus sp. HK14365/08 after 24 hrs by broth microdilution method; type: functional; conditions: HK14365/08, 24 h
Enterococcus sp. [30] = assay: Antibacterial activity against Enterococcus sp. HK14365/08 after 48 hrs by broth microdilution method; type: functional; conditions: HK14365/08, 48 h
Escherichia coli [31] = assay: Antibacterial activity against Escherichia coli ATCC 8739 after 24 hrs by broth microdilution method; type: functional; conditions: ATCC 8739, 24 h
Escherichia coli [32] = assay: Antibacterial activity against Escherichia coli ATCC 8739 after 48 hrs by broth microdilution method; type: functional; conditions: ATCC 8739, 48 h
Klebsiella pneumoniae [33] = assay: Antibacterial activity against Klebsiella pneumoniae HK11750/08 after 24 hrs by broth microdilution method; type: functional; conditions: HK11750/08, 24 h
Klebsiella pneumoniae [34] = assay: Antibacterial activity against Klebsiella pneumoniae HK11750/08 after 48 hrs by broth microdilution method; type: functional; conditions: HK11750/08, 48 h
Klebsiella pneumoniae [35] = assay: Antibacterial activity against extended spectrum beta-lactamase producing Klebsiella pneumoniae HK14368/08 after 24 hrs by broth microdilution method; type: functional; conditions: HK14368/08, 24 h
Klebsiella pneumoniae [36] = assay: Antibacterial activity against extended spectrum beta-lactamase producing Klebsiella pneumoniae HK14368/08 after 48 hrs by broth microdilution method; type: functional; conditions: HK14368/08, 48 h
Pseudomonas aeruginosa [37] = assay: Antibacterial activity against Pseudomonas aeruginosa ATCC 9027 after 24 hrs by broth microdilution method; type: functional; conditions: ATCC 9027, 24 h
Pseudomonas aeruginosa [38] = assay: Antibacterial activity against Pseudomonas aeruginosa ATCC 9027 after 48 hrs by broth microdilution method; type: functional; conditions: ATCC 9027, 48 h
[39] = Cytotoxicity against human HuH7 cells assessed as cell viability at 30 uM after 48 hrs by MTS assay relative to control; type: cell-based, Huh-7; conditions: read-out: Activity
Huh-7 = assay: Cytotoxicity against human HuH7 cells assessed as cell viability after 48 hrs by MTS assay; type: cell-based; conditions: Huh-7, 48 h
A-431 = assay: Cytotoxicity against human A431 cells assessed as cell viability after 48 hrs by MTS assay; type: cell-based; conditions: A-431, 48 h
[40] = Cytotoxicity against human A431 cells assessed as cell viability at 30 uM after 48 hrs by MTS assay relative to control; type: cell-based, A-431; conditions: read-out: Activity
MDCK = assay: Cytotoxicity against MDCK cells assessed as cell viability after 48 hrs by MTS assay; type: cell-based; conditions: Canis lupus familiaris
[41] = Cytotoxicity against MDCK cells assessed as cell viability at 30 uM after 48 hrs by MTS assay relative to control; type: cell-based, Canis lupus familiaris; conditions: dog, read-out: Activity
HepG2 = assay: Cytotoxicity against human HepG2 cells assessed as cell viability after 48 hrs by MTS assay; type: cell-based; conditions: HepG2, 48 h
[42] = Cytotoxicity against human HepG2 cells assessed as cell viability at 30 uM after 48 hrs by MTS assay relative to control; type: cell-based; conditions: read-out: Activity
[43] = Selectivity index, ratio of IC50 for human HepG2 cells to MIC for Mycobacterium tuberculosis; type: toxicity; conditions: read-out: Selectivity Index
[44] = system: Mycobacterium tuberculosis; assay: Antimycobacterial activity against Mycobacterium tuberculosis CNCTC My 331/88 after 21 days by micromethod; type: functional; conditions: CNCTC My 331/88, 504 h
Mycobacterium kansasii [45] = assay: Antimycobacterial activity against Mycobacterium kansasii CNCTC My 235/80 after 21 days by micromethod; type: functional; conditions: CNCTC My 235/80, 504 h
Mycobacterium kansasii [46] = assay: Antimycobacterial activity against Mycobacterium kansasii CNCTC My 235/80 after 7 days by micromethod; type: functional; conditions: CNCTC My 235/80, 168 h
Mycobacterium kansasii [47] = assay: Antimycobacterial activity against Mycobacterium kansasii 6509/96 clinical isolate after 21 days by micromethod; type: functional; conditions: 6509/96, 504 h
Mycobacterium kansasii [48] = assay: Antimycobacterial activity against Mycobacterium kansasii 6509/96 clinical isolate after 7 days by micromethod; type: functional; conditions: 6509/96, 168 h
[49] = system: Mycobacterium tuberculosis; assay: Antimycobacterial activity against Mycobacterium tuberculosis H37Rv by broth microdilution method; type: functional

## CCC1Cn2cc([N+](=O)[O-])nc2O1 (stereo not drawn)
[1]
  MIC: 0.2 µM (≈ 0.0366 µg/mL)

## O=[N+]([O-])c1cc(-c2nnc(SCc3ccccc3Cl)o2)cc([N+](=O)[O-])c1
Mycobacterium avium [2]
  MIC: 8 µM (≈ 3.14 µg/mL)
[3]
  MIC: 0.03 µM (≈ 0.0118 µg/mL)
Mycobacterium avium [4]
  MIC: 4 µM (≈ 1.57 µg/mL)
Mycobacterium kansasii [5]
  MIC: 0.125 µM (≈ 0.0491 µg/mL)
Mycobacterium kansasii [6]
  MIC: 0.06 µM (≈ 0.0236 µg/mL)
Candida albicans [7]
  MIC: > 500 µM
Candida albicans [8]
  MIC: > 500 µM
Candida tropicalis [9]
  MIC: > 500 µM
Candida tropicalis [10]
  MIC: > 500 µM
Pichia kudriavzevii [11]
  MIC: > 500 µM
Pichia kudriavzevii [12]
  MIC: > 500 µM
Nakaseomyces glabratus [13]
  MIC: > 500 µM
Nakaseomyces glabratus [14]
  MIC: > 500 µM
Trichosporon asahii [15]
  MIC: > 500 µM
Trichosporon asahii [16]
  MIC: > 500 µM
Aspergillus fumigatus [17]
  MIC: > 500 µM
Aspergillus fumigatus [18]
  MIC: > 500 µM
Lichtheimia corymbifera [19]
  MIC: > 500 µM
Lichtheimia corymbifera [20]
  MIC: > 500 µM
[21]
  MIC: > 500 µM
[22]
  MIC: > 500 µM
Staphylococcus aureus [23]
  MIC: > 500 µM
Staphylococcus aureus [24]
  MIC: > 500 µM
Staphylococcus aureus [25]
  MIC: > 500 µM
Staphylococcus aureus [26]
  MIC: > 500 µM
[27]
  MIC: > 500 µM
[28]
  MIC: > 500 µM
Enterococcus sp. [29]
  MIC: > 500 µM
Enterococcus sp. [30]
  MIC: > 500 µM
Escherichia coli [31]
  MIC: > 500 µM
Escherichia coli [32]
  MIC: > 500 µM
Klebsiella pneumoniae [33]
  MIC: > 500 µM
Klebsiella pneumoniae [34]
  MIC: > 500 µM
Klebsiella pneumoniae [35]
  MIC: > 500 µM
Klebsiella pneumoniae [36]
  MIC: > 500 µM
Pseudomonas aeruginosa [37]
  MIC: > 500 µM
Pseudomonas aeruginosa [38]
  MIC: > 500 µM
[39]
  viability at 48 h, 30 µM: 144%
Huh-7
  IC50: > 30 µM
A-431
  IC50: > 30 µM
[40]
  viability at 48 h, 30 µM: 91%
MDCK
  IC50: > 30 µM
[41]
  viability at 48 h, 30 µM: 115%
HepG2
  IC50: > 30 µM
[42]
  viability at 48 h, 30 µM: 129%
[43]
  selectivity ratio: > 1000
[44]
  MIC: 0.03 µM (≈ 0.0118 µg/mL)
Mycobacterium kansasii [45]
  MIC: 0.125 µM (≈ 0.0491 µg/mL)
Mycobacterium kansasii [46]
  MIC: 0.06 µM (≈ 0.0236 µg/mL)
Mycobacterium kansasii [47]
  MIC: 0.125 µM (≈ 0.0491 µg/mL)
Mycobacterium kansasii [48]
  MIC: 0.06 µM (≈ 0.0236 µg/mL)

## C[C@H]1COC2(CCN(c3nc(=O)c4cc(C(F)(F)F)cc([N+](=O)[O-])c4s3)CC2)O1 [BTZ-043]
[49]
  MIC: 1 nM (≈ 0.000431 µg/mL)
